In patent US10912743B2, “Compositions for treating inflammation and methods of treating the same” (Novan, Inc., priority 2016, dated 2021):
Marks after values point to notes of the source that are not given here.

Tests used:
[1] = test system: oxazolone-induced ear swelling; assay: Oxazolone-induced ear swelling assay in BALB/c mice; type: in vivo
Procedure: Groups of 5 BALB/c male mice weighing 22±2 g were used. The animals were sensitized by application of oxazolone (100 μL, 1.5% in acetone) to their preshaved abdominal surface. Seven days later, test substances (20 mg/ear) and vehicle (20 μL/ear) were applied topically to the anterior and posterior surfaces of the right ear 30 min before and 15 min after oxazolone (1%, 20 μL/ear) challenge. Ear swelling was measured with a Dyer model micrometer gauge at 24 hours after oxazolone challenge as an index of inflammation. Ear edema was calculated by subtracting the thickness of the left ear (normal control) from the right ear (treated ear). Percent inhibition was calculated according to the formula: (Ic −It)/Ic×100, where Ic and It refers to increase of ear thickness (mm) in control and treated mice, respectively. One-way ANOVA and Dunnett's test were used to determine statistical significance between vehicle control and treated groups. Significance is set at P<0.05.
Test substances and vehicles were each administered topically (TOP) at 30 minutes before and 15 minutes after challenge with the second application of oxazolone.
The test system used was a 7-day oxazolone-induced ear swelling assay. […] Ear swelling was measured with a Dyer model micrometer gauge at 24 hours after oxazolone challenge as an index of inflammation. Ear edema was calculated by subtracting the thickness of the left ear (normal control) from the right ear (treated ear) (Table 9). […] Percent inhibition was calculated according to the formula: (Ic−It)/Ic×100, where Ic and It refer to increase of ear thickness (mm) in control and treated mice, respectively. […]
BALB/c mice are sensitized with oxazolone exposure to the abdomen and are subsequently challenged (7 days post-sensitization) with oxazolone application to the right ear. […] The effect of anti-inflammatory test articles is then assessed by measuring the amount of ear swelling, which is reported as a percentage in comparison to the study vehicle. […]

[2] = test system: Th17/IL-17 pathway; details: skin biopsies stimulated with cytokine cocktail 48 hrs; cited from earlier work

## C[C@@H]1C[C@H]2[C@@H]3CCC4=CC(=O)C=C[C@]4(C)[C@@]3(F)[C@@H](O)C[C@]2(C)[C@@]1(O)C(=O)CO [Dexamethasone]
[1]; Example 2 study, TOP x 2 (30 min before, 15 min after oxazolone challenge), 24 hours, vs acetone/ethanol 1/1
  Ear Swelling % Inhibition (vs. Vehicle A): 85* %
[1]; Example 4 study, TOP x 2, 24 hours
  % inhibition of oxazolone-induced ear swelling vs ethanol/acetone: 86%
[1]; Example 4 study, TOP x 2, 24 hours after oxazolone challenge
  Net Swelling on Right Ear (Mean ± SEM, ×0.01 mm): 3.2 ± 0.4 ×0.01 mm

## C=C1/C(=C\C=C2/CCC[C@]3(C)[C@@H]([C@H](C)/C=C/[C@@H](O)C4CC4)CC[C@@H]23)C[C@@H](O)C[C@@H]1O [calcipotriol]
[2]
  IL-17 secretion: partial inhibition of IL-17 secretion
